Values joined by “and” are separate entries in the source; they are usually repeats but may differ in a detail not shown here. Equal entries are not always repeated. Inconclusive results and toxic doses are left out. Cut-off read from the data, not from the text of the source: active = T/C of 150% or more; inactive = T/C below 125%.
Tested on: L1210 leukemia ip in BDF1 mice, survival T/C
Assay: NCI In Vivo Anticancer Drug Screen. Data for tumor model L1210 Leukemia (intraperitoneal) in B6D2F1 (BDF1) mice
Conditions: higher = longer survival
Method in brief: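 Ratio derived from survival: compound-dosed mice over vehicle-dosed mice, all bearing a transplantable tumor.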

[1] = endpoint: mean survival time, dose: 100.0 mg/kg/injection, schedule: Q01DX001 (ip), vehicle: Klucel (hydroxypropylcellulose) (HPC)
[2] = endpoint: mean survival time, dose: 100.0 mg/kg/injection, schedule: Q01DX009 (ip), vehicle: Klucel (hydroxypropylcellulose) (HPC)
[3] = endpoint: mean survival time, dose: 100.0 mg/kg/injection, schedule: Q04DX003 (ip), vehicle: Klucel (hydroxypropylcellulose) (HPC)
[4] = endpoint: mean survival time, dose: 200.0 mg/kg/injection, schedule: Q01DX001 (ip), vehicle: Klucel (hydroxypropylcellulose) (HPC)
[5] = endpoint: mean survival time, dose: 200.0 mg/kg/injection, schedule: Q01DX009 (ip), vehicle: Klucel (hydroxypropylcellulose) (HPC)
[6] = endpoint: mean survival time, dose: 200.0 mg/kg/injection, schedule: Q04DX003 (ip), vehicle: Klucel (hydroxypropylcellulose) (HPC)
[7] = endpoint: mean survival time, dose: 400.0 mg/kg/injection, schedule: Q01DX001 (ip), vehicle: Klucel (hydroxypropylcellulose) (HPC)
[8] = endpoint: mean survival time, dose: 400.0 mg/kg/injection, schedule: Q01DX009 (ip), vehicle: Klucel (hydroxypropylcellulose) (HPC)
[9] = endpoint: mean survival time, dose: 400.0 mg/kg/injection, schedule: Q04DX003 (ip), vehicle: Klucel (hydroxypropylcellulose) (HPC)
[10] = endpoint: mean survival time, dose: 50.0 mg/kg/injection, schedule: Q01DX009 (ip), vehicle: saline with Tween-80
[11] = endpoint: mean survival time, dose: 100.0 mg/kg/injection, schedule: Q01DX009 (ip), vehicle: saline with Tween-80
[12] = endpoint: mean survival time, dose: 200.0 mg/kg/injection, schedule: Q01DX009 (ip), vehicle: saline with Tween-80
[13] = endpoint: mean survival time, dose: 100.0 mg/kg/injection, schedule: Q04DX002 (ip), vehicle: Klucel (hydroxypropylcellulose) (HPC)
[14] = endpoint: mean survival time, dose: 200.0 mg/kg/injection, schedule: Q04DX002 (ip), vehicle: Klucel (hydroxypropylcellulose) (HPC)
[15] = endpoint: mean survival time, dose: 400.0 mg/kg/injection, schedule: Q04DX002 (ip), vehicle: Klucel (hydroxypropylcellulose) (HPC)
[16] = endpoint: mean survival time, dose: 100.0 mg/kg/injection, schedule: Q04DX003 (ip), vehicle: saline with Tween-80
[17] = endpoint: mean survival time, dose: 200.0 mg/kg/injection, schedule: Q04DX003 (ip), vehicle: saline with Tween-80
[18] = endpoint: mean survival time, dose: 400.0 mg/kg/injection, schedule: Q01DX009 (ip), vehicle: saline with Tween-80
[19] = endpoint: mean survival time, dose: 400.0 mg/kg/injection, schedule: Q04DX003 (ip), vehicle: saline with Tween-80
[20] = endpoint: mean survival time, dose: 100.0 mg/kg/injection, schedule: Q01DX001 (ip), vehicle: saline

Measured: T/C

Cc1ccc(S(=O)(=O)OCCS(C)(=O)=O)cc1
inactive: [1] 102 % of control | [2] 103 % of control | [3] 101 % of control | [4] 106 % of control | [5] 101 % of control | [6] 103 % of control | [7] 104 % of control | [8] 101 % of control | [9] 97 % of control

O=C(c1ccccc1)C(Br)C(C(=O)c1ccccc1)c1ccccc1 (configuration not stated)
inactive: [10] 94 % of control | [11] 90 % of control | [12] 86 % of control

O=[N+]([O-])C1(Br)c2ccccc2-c2nc3ccccc3cc21 (configuration not stated)
inactive: [1] 94 % of control | [4] 97 % of control | [7] 94 % of control

Nc1nc(=S)[nH]c(C(=O)O)c1Cc1ccccc1
inactive: endpoint: mean survival time, dose: 10.0 mg/kg/injection, schedule: Q04DX003 (ip), vehicle: Klucel (hydroxypropylcellulose) (HPC) 101 % of control | endpoint: mean survival time, dose: 20.0 mg/kg/injection, schedule: Q01DX009 (ip), vehicle: Klucel (hydroxypropylcellulose) (HPC) 92 % of control | endpoint: mean survival time, dose: 20.0 mg/kg/injection, schedule: Q04DX003 (ip), vehicle: Klucel (hydroxypropylcellulose) (HPC) 95 % of control | endpoint: mean survival time, dose: 40.0 mg/kg/injection, schedule: Q01DX009 (ip), vehicle: Klucel (hydroxypropylcellulose) (HPC) 104 % of control | endpoint: mean survival time, dose: 40.0 mg/kg/injection, schedule: Q04DX003 (ip), vehicle: Klucel (hydroxypropylcellulose) (HPC) 98 % of control | endpoint: mean survival time, dose: 80.0 mg/kg/injection, schedule: Q01DX009 (ip), vehicle: Klucel (hydroxypropylcellulose) (HPC) 98 % of control

COCn1c2ccccc2c2nc(-c3ccncc3)nc(-c3ccncc3)c21
inactive: [13] 98 % of control | [14] 98 % of control | [15] 95 % of control

CCOC(=O)c1ccc(N=[N+]([O-])c2ccc(C(=O)OCC)cc2)cc1
inactive: [13] 96 % of control | [14] 96 % of control | [15] 100 % of control

COC(=O)Nc1nc2ccccc2[nH]1
inactive: [10] 97 % of control | endpoint: mean survival time, dose: 100.0 mg/kg/injection, schedule: Q01DX001 (ip), vehicle: carboxymethylcellulose (CMC) 94 % of control | [11] 101 % of control | [16] 94 % of control | endpoint: mean survival time, dose: 200.0 mg/kg/injection, schedule: Q01DX001 (ip), vehicle: carboxymethylcellulose (CMC) 97 % of control | [12] 97 % of control | [17] 103 % of control | endpoint: mean survival time, dose: 400.0 mg/kg/injection, schedule: Q01DX001 (ip), vehicle: carboxymethylcellulose (CMC) 100 % of control | [18] 116 % of control | [19] 105 % of control

CC(=O)C12OC(C)(C)OC1CC1C3CCC4=CC(=O)C=CC4(C)C3(F)C(O)CC12C (configuration not stated)
inactive: endpoint: mean survival time, dose: 12.5 mg/kg/injection, schedule: Q04DX002 (ip), vehicle: Klucel (hydroxypropylcellulose) (HPC) 104 % of control | endpoint: mean survival time, dose: 25.0 mg/kg/injection, schedule: Q04DX002 (ip), vehicle: Klucel (hydroxypropylcellulose) (HPC) 107 % of control | endpoint: mean survival time, dose: 50.0 mg/kg/injection, schedule: Q04DX002 (ip), vehicle: Klucel (hydroxypropylcellulose) (HPC) 107 % of control

c1c(N2CC2)cc(N2CC2)cc1N1CC1
inactive: endpoint: median survival time, dose: 100.0 mg/kg/injection, schedule: Q01DX009 (ip), vehicle: Klucel (hydroxypropylcellulose) (HPC) 108 % of control | endpoint: median survival time, dose: 200.0 mg/kg/injection, schedule: Q01DX009 (ip), vehicle: Klucel (hydroxypropylcellulose) (HPC) 97 % of control | endpoint: median survival time, dose: 400.0 mg/kg/injection, schedule: Q01DX009 (ip), vehicle: Klucel (hydroxypropylcellulose) (HPC) 92 % of control

c1ccc2c(c1)Nc1ccncc1S2
inactive: [11] 95 % of control | [12] 90 % of control | [18] 101 % of control

CCN(CC)c1ccc(C(=O)OCCNC2CCCCC2)cc1
inactive: endpoint: mean survival time, dose: 75.0 mg/kg/injection, schedule: Q01DX001 (ip), vehicle: carboxymethylcellulose (CMC) 94 % of control | endpoint: mean survival time, dose: 150.0 mg/kg/injection, schedule: Q01DX001 (ip), vehicle: carboxymethylcellulose (CMC) 98 % of control

CCOC(=O)C1=C(NNC(N)=S)C2CCN1CC2
inactive: [20] 105 % of control | endpoint: mean survival time, dose: 200.0 mg/kg/injection, schedule: Q01DX001 (ip), vehicle: saline 100 % of control | endpoint: mean survival time, dose: 400.0 mg/kg/injection, schedule: Q01DX001 (ip), vehicle: saline 101 % of control

CSc1ccc(NC(=O)Oc2cc3ccccc3cc2C(=O)Nc2ccc(Cl)cc2)cc1
inactive: [11] 99 % of control and 86 % of control | endpoint: mean survival time, dose: 100.0 mg/kg/injection, schedule: Q04DX002 (ip), vehicle: saline with Tween-80 88 % of control | [16] 90 % of control | [12] 111 % of control and 89 % of control | endpoint: mean survival time, dose: 200.0 mg/kg/injection, schedule: Q04DX002 (ip), vehicle: saline with Tween-80 91 % of control and 92 % of control | [17] 92 % of control | [18] 95 % of control and 96 % of control | endpoint: mean survival time, dose: 400.0 mg/kg/injection, schedule: Q04DX002 (ip), vehicle: saline with Tween-80 94 % of control and 103 % of control | [19] 87 % of control

O=C(Nc1ccccc1C(F)(F)F)OCCN1CCNC1=S
inactive: [1] 106 % of control | [2] 96 % of control and 103 % of control | [13] 94 % of control and 96 % of control | [3] 101 % of control | [4] 103 % of control | [5] 98 % of control and 100 % of control | [14] 95 % of control and 111 % of control | [6] 106 % of control | [7] 104 % of control | [8] 95 % of control and 100 % of control | [15] 94 % of control and 104 % of control | [9] 89 % of control

COc1cccc2c1CCC1C2CC=C2CC3(CCC21C)OCCO3 (configuration not stated)
inactive: endpoint: mean survival time, dose: 100.0 mg/kg/injection, schedule: Q01DX009 (sc), vehicle: steriod suspending solution 102 % of control | endpoint: mean survival time, dose: 200.0 mg/kg/injection, schedule: Q01DX009 (sc), vehicle: steriod suspending solution 102 % of control | endpoint: mean survival time, dose: 400.0 mg/kg/injection, schedule: Q01DX009 (sc), vehicle: steriod suspending solution 101 % of control

CC1(C)N=C(N)N=C(N)N1c1ccc(CC(C(=O)Nc2cccc(S(=O)(=O)F)c2)c2ccccc2)cc1 (configuration not stated)
inactive: endpoint: mean survival time, dose: 25.0 mg/kg/injection, schedule: Q01DX001 (ip), vehicle: saline 105 % of control | endpoint: mean survival time, dose: 50.0 mg/kg/injection, schedule: Q01DX001 (ip), vehicle: saline 106 % of control | endpoint: mean survival time, dose: 87.5 mg/kg/injection, schedule: Q01DX001 (ip), vehicle: saline 94 % of control | [20] 97 % of control

COc1cc2c(cc1NC1=NCCO1)OCO2
inactive: endpoint: mean survival time, dose: 75.0 mg/kg/injection, schedule: Q04DX003 (ip), vehicle: Klucel (hydroxypropylcellulose) (HPC) 101 % of control | endpoint: mean survival time, dose: 150.0 mg/kg/injection, schedule: Q04DX003 (ip), vehicle: Klucel (hydroxypropylcellulose) (HPC) 93 % of control | endpoint: mean survival time, dose: 300.0 mg/kg/injection, schedule: Q04DX003 (ip), vehicle: Klucel (hydroxypropylcellulose) (HPC) 103 % of control

Source: PubChem BioAssay AID248 (DTP/NCI, 2004)
